Test results: paper PMC8582824, “Targeting DDX3X Helicase Activity with BA103 Shows Promising Therapeutic Effects in Preclinical Glioblastoma Models” (Cancers, 2021)

Legend:
Type in all cases: cell-based
[1] = system: HepG2; experiment: MTS cytotoxicity assay, HepG2 cells; settings: HepG2, 72 h
Description: (§1) For CellTiter 96® Aqueous One Solution Cell Proliferation Assay (MTS) (Promega, Madison, WI, USA), cells were seeded at 5 × 10^3 per well in 96-well plates in quadruplicate together a control with no cells to evaluate the background. After 24 h, the culture medium was removed, and fresh medium containing increasing concentrations of chemical compounds was added to cells. The fixed final concentrations were 0.1 μM, 1 μM, 10 μM, and 100 μM. DMSO was the vehicle used for dilution of the compounds, and its final concentration on cells was less than 0.2%. Medium-only containing wells were included as controls. […] After 3 h at 37 °C in a humidified, 5% CO2 atmosphere, the absorbance at 492 nm was recorded using an EZREAD400 (Biochrom, Cambridge, United Kingdom) plate reader. The average 490 nm absorbance from the “no cell” control wells was subtracted from all other values to yield background-corrected absorbance. Dose–response curves and CC50 values have been calculated by plotting the absorbance data as a function of inhibitor concentrations and fitting the data by least-squares nonlinear regression, according to the method of Marquardt–Levenberg, with the computer program GraphPad Prism 6.0.
(§2) Cells were incubated with a scalar concentration of DDX3X inhibitors, and after 72 h of treatment, cell viability was assessed by cytotoxicity assay. […]

[2] = system: HN6; experiment: MTS cytotoxicity assay, HN6 cells; settings: HN6, 72 h
Description: as §1, §2

[3] = system: A549, MDA-MB-231, HCT-116, U2OS, RD18, DBTRG, U87, U251 and DAOY cancer cell lines; experiment: Cytotoxicity on additional cancer cell lines; settings: 72 h
Description: as §1, §2

[4] = system: β-catenin; experiment: β-catenin expression by Western blot and immunofluorescence; settings: U87 and U251 cells, 48 h
Description: Cells were incubated for 15 min in lysis buffer containing 1% triton, 0.1% SDS, 2 mmol/L CaCl2, 10 mg/mL orthovanadate, and 1× protease inhibitors cocktail (Sigma-Aldrich, St. Louis, MO, USA). Forty micrograms of proteins were electrophoresed in 12% SDS-polyacrylamide gel, and then, the gel was placed onto a Trans-Blot Turbo mini nitrocellulose transfer pack and transferred using a Trans-Blot Turbo Transfer System (Bio-Rad Laboratories, Hercules, CA, USA). The membrane was incubated with […] primary antibody and then with […] horseradish peroxidase (HRP)-conjugated secondary antibodies (Santa Cruz Biotechnology, Dallas, TX, USA). […]
Cells grown on coverslips (2 × 10^4 cells/cm^2) were fixed in 4% w/v paraformaldehyde in PBS for 10 min at RT and permeabilized in PBS containing 0.1% v/v Triton X-100 for 5 min at RT. […] After extensive washings, cells were mounted with ProLong Gold antifade mounting medium (Life Technologies Corporation, Carlsbad, CA, USA) and observed by a fluorescence microscope equipped with a digital camera (AXIOPHOT, Carl Zeiss, Oberkochen, Germany).
To better characterize the antiproliferative effect of BA103, we performed further biological evaluation using GBM cell lines. The expression of DDX3X was evaluated in U87 and U251 cell lines by Western blot analysis in comparison with HepG2 cells, resulting in basally detectable mainly in U87 cells (Figure 6A). […]

## CCCCc1cn(-c2ccc(NC(=O)Nc3ccccc3C(F)(F)F)cc2)nn1 [BA103, 1-(4-(4-Butyl-1H-1,2,3-triazol-1-yl)phenyl)-3-(2-(trifluoromethyl)phenyl)urea]
[1]
  CC50: low micromolar range
[2]
  CC50: low micromolar range
[3]
  CC50s against the additional cell lines: micromolar CC50s
[4]
  expression of β-catenin: reduction in the expression of β-catenin
